Laboratory results: PubChem BioAssay AID330 (DTP/NCI, 2004)
Several values for one entry are separate records, joined by “and”; a condition that tells them apart may be missing. Identical values can stand only once. Toxic doses and inconclusive results are not listed. The calls were made as follows: active = survival T/C of 150% or more; inactive = T/C below 125% in these data.

Test system: P388 leukemia ip, CD2F1 mice, survival T/C
Test: NCI In Vivo Anticancer Drug Screen. Data for tumor model P388 Leukemia (intraperitoneal) in CD2F1 (CDF1) mice
Conditions: endpoint: median survival time, higher = longer survival
Outline: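 Mice carrying the transplanted tumor received test compound or vehicle. Survival was recorded in each group, and the value is the treated-group measurement divided by that of the vehicle-treated control group.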

[1] = dose: 50.0 mg/kg/injection, schedule: Q01DX005 (ip), vehicle: Klucel (hydroxypropylcellulose) (HPC)
[2] = dose: 50.0 mg/kg/injection, schedule: Q01DX005 (ip), vehicle: saline with Tween-80
[3] = dose: 200.0 mg/kg/injection, schedule: Q01DX005 (ip), vehicle: saline with Tween-80
[4] = dose: 50.0 mg/kg/injection, schedule: Q01DX009 (ip), vehicle: saline with Tween-80
[5] = dose: 100.0 mg/kg/injection, schedule: Q01DX009 (ip), vehicle: saline with Tween-80
[6] = dose: 200.0 mg/kg/injection, schedule: Q01DX009 (ip), vehicle: saline with Tween-80
[7] = dose: 50.0 mg/kg/injection, schedule: Q01DX005 (ip), vehicle: saline
[8] = dose: 100.0 mg/kg/injection, schedule: Q01DX005 (ip), vehicle: saline
[9] = dose: 50.0 mg/kg/injection, schedule: Q01DX009 (ip), vehicle: saline
[10] = dose: 100.0 mg/kg/injection, schedule: Q01DX009 (ip), vehicle: saline
[11] = dose: 200.0 mg/kg/injection, schedule: Q01DX009 (ip), vehicle: saline
[12] = dose: 100.0 mg/kg/injection, schedule: Q04DX003 (ip), vehicle: saline
[13] = dose: 12.5 mg/kg/injection, schedule: Q01DX001 (ip), vehicle: saline with Tween-80
[14] = dose: 200.0 mg/kg/injection, schedule: Q01DX001 (ip), vehicle: saline with Tween-80
[15] = dose: 400.0 mg/kg/injection, schedule: Q01DX001 (ip), vehicle: saline with Tween-80
[16] = dose: 100.0 mg/kg/injection, schedule: Q01DX005 (ip), vehicle: saline with Tween-80
[17] = dose: 100.0 mg/kg/injection, schedule: Q01DX005 (ip), vehicle: Klucel (hydroxypropylcellulose) (HPC)

Measured: T/C

Cn1c2c(c3cc(Cl)ccc31)-c1ncncc1CC2
inactive: dose: 12.5 mg/kg/injection, schedule: Q01DX005 (ip), vehicle: Klucel (hydroxypropylcellulose) (HPC) 97 % of control | dose: 25.0 mg/kg/injection, schedule: Q01DX005 (ip), vehicle: Klucel (hydroxypropylcellulose) (HPC) 97 % of control | [1] 101 % of control | dose: 100.0 mg/kg/injection, schedule: Q04DX002 (ip), vehicle: Klucel (hydroxypropylcellulose) (HPC) 92 % of control

CCCCCCCCCCCCCCCCCCCCCCCCC(O)C(=O)O (stereo not given) (tested in a mixture with another compound)
inactive: dose: 12.5 mg/kg/injection, schedule: Q01DX005 (ip), vehicle: saline with Tween-80 106 % of control | dose: 25.0 mg/kg/injection, schedule: Q01DX005 (ip), vehicle: saline with Tween-80 93 % of control | [2] 87 % of control and 89 % of control | [3] 87 % of control

CSc1nnc(CCC(=O)Nc2c(C)cccc2C(C)(C)C)o1
inactive: dose: 60.0 mg/kg/injection, schedule: Q01DX005 (ip), vehicle: saline with Tween-80 104 % of control | dose: 120.0 mg/kg/injection, schedule: Q01DX005 (ip), vehicle: saline with Tween-80 99 % of control | dose: 240.0 mg/kg/injection, schedule: Q01DX005 (ip), vehicle: saline with Tween-80 91 % of control

CC1=NN(C(=O)c2ccncc2)C(=O)C1N=Nc1ccc(Cl)cc1 (stereo not given)
inactive: [4] 104 % of control | [5] 99 % of control | [6] 105 % of control

O=S(O)Cc1ccccc1CSSSCc1ccccc1CS(=O)O
inactive: dose: 25.0 mg/kg/injection, schedule: Q01DX005 (ip), vehicle: saline 114 % of control | [7] 114 % of control | [8] 114 % of control | dose: 200.0 mg/kg/injection, schedule: Q01DX005 (ip), vehicle: saline 112 % of control

O=C1CCSC(=S)N1c1ccc(N=Nc2ccccc2)cc1
inactive: [9] 105 % of control | [10] 110 % of control | [11] 110 % of control

Cc1ccccc1C1C2CCCC(C2=O)C(c2ccccc2C)N1C (stereo not given)
inactive: [12] 100 % of control | dose: 200.0 mg/kg/injection, schedule: Q04DX003 (ip), vehicle: saline 103 % of control | dose: 400.0 mg/kg/injection, schedule: Q04DX003 (ip), vehicle: saline 89 % of control

C1CCC2(CC1)CSC2.[Br][Hg][Br]
inactive: dose: 6.25 mg/kg/injection, schedule: Q01DX001 (ip), vehicle: saline with Tween-80 89 % of control | [13] 87 % of control

CC12C=CC(C)(C3C(=O)NC(=O)C31)C1C3C(=O)NC(=O)C3C12 (stereo not given)
inactive: dose: 25.0 mg/kg/injection, schedule: Q01DX009 (ip), vehicle: Klucel (hydroxypropylcellulose) (HPC) 106 % of control | dose: 50.0 mg/kg/injection, schedule: Q01DX009 (ip), vehicle: Klucel (hydroxypropylcellulose) (HPC) 109 % of control | dose: 100.0 mg/kg/injection, schedule: Q01DX009 (ip), vehicle: Klucel (hydroxypropylcellulose) (HPC) 106 % of control | dose: 200.0 mg/kg/injection, schedule: Q01DX009 (ip), vehicle: Klucel (hydroxypropylcellulose) (HPC) 109 % of control

Cc1ccc(S(=O)(=O)NC(=O)Nc2ncn[nH]2)cc1
inactive: [4] 99 % of control | [5] 98 % of control | [6] 104 % of control

OCCNCCN=C1CCC(=NCCNCCO)CC1
inactive: [7] 107 % of control | [8] 105 % of control

CCSC(C(OC(C)=O)C(OC(C)=O)C(COC(C)=O)OC(C)=O)n1cnc2c(=S)nc[nH]c21 (stereo not given)
inactive: dose: 100.0 mg/kg/injection, schedule: Q01DX001 (ip), vehicle: saline with Tween-80 101 % of control | [14] 93 % of control | [15] 87 % of control

COP1(OC)(OC)OC(C)=C(C)O1
inactive: [9] 86 % of control | [10] 94 % of control | [11] 86 % of control

C=C(C)C1CC2=C(C(=O)OC)C=C(O2)C(C(=C)C)C2OC(=O)/C(=C\C1O)C2OC (stereo not given)
inactive: dose: 11.88 mg/kg/injection, schedule: Q01DX005 (ip), vehicle: saline + alcohol 99 % of control | dose: 23.75 mg/kg/injection, schedule: Q01DX005 (ip), vehicle: saline + alcohol 96 % of control | dose: 47.5 mg/kg/injection, schedule: Q01DX005 (ip), vehicle: saline + alcohol 101 % of control | dose: 95.0 mg/kg/injection, schedule: Q01DX005 (ip), vehicle: saline + alcohol 108 % of control | dose: 190.0 mg/kg/injection, schedule: Q01DX005 (ip), vehicle: saline + alcohol 99 % of control

COC(=O)c1c(C(=O)OC)c2ccc3ccccc3n2c1-c1ccccc1
inactive: [13] 115 % of control | dose: 25.0 mg/kg/injection, schedule: Q01DX001 (ip), vehicle: saline with Tween-80 94 % of control | dose: 50.0 mg/kg/injection, schedule: Q01DX001 (ip), vehicle: saline with Tween-80 94 % of control | [14] 93 % of control | [15] 100 % of control

COC(=O)c1c(C)cc(OC(=O)c2c(C)cc(O)c(C=O)c2O)c(C)c1O
inactive: dose: 0.25 mg/kg/injection, schedule: Q01DX009 (ip), vehicle: saline with Tween-80 104 % of control | dose: 0.5 mg/kg/injection, schedule: Q01DX009 (ip), vehicle: saline with Tween-80 92 % of control | dose: 1.0 mg/kg/injection, schedule: Q01DX009 (ip), vehicle: saline with Tween-80 104 % of control | [9] 95 % of control | [10] 90 % of control | [11] 95 % of control

CCn1c2ccccc2c2ccc(N=Cc3cccc4ccccc34)cc21
inactive: dose: 100.0 mg/kg/injection, schedule: Q04DX003 (ip), vehicle: saline + alcohol 105 % of control | dose: 200.0 mg/kg/injection, schedule: Q04DX003 (ip), vehicle: saline + alcohol 97 % of control | dose: 400.0 mg/kg/injection, schedule: Q04DX003 (ip), vehicle: saline + alcohol 105 % of control

O=C(O)C(O)C(O)C(=O)O.O=C(O)C(O)C(O)C(=O)O.[O]=[V].[O]=[V] (stereo not given)
inactive: dose: 12.5 mg/kg/injection, schedule: Q01DX009 (ip), vehicle: saline 110 % of control | dose: 15.0 mg/kg/injection, schedule: Q01DX009 (ip), vehicle: saline 102 % of control | dose: 25.0 mg/kg/injection, schedule: Q01DX009 (ip), vehicle: saline 110 % of control | dose: 25.0 mg/kg/injection, schedule: Q04DX003 (ip), vehicle: saline sonified 100 % of control | dose: 30.0 mg/kg/injection, schedule: Q01DX009 (ip), vehicle: saline 106 % of control | dose: 50.0 mg/kg/injection, schedule: Q04DX003 (ip), vehicle: saline sonified 104 % of control

C=CCOC(=O)C(NC(=O)OCCCC)NC(=O)OCCCC
inactive: [2] 103 % of control | [16] 100 % of control | [3] 98 % of control

CC1CN(Cc2ccccc2)CCC1N1CCCCC1 (stereo not given)
inactive: [7] 99 % of control | [8] 100 % of control

CC(C)(C)SCC(NC(=O)OCC1c2ccccc2-c2ccccc21)C(=O)O (stereo not given)
inactive: [1] 100 % of control | [17] 100 % of control

CCC(=O)NC1c2ccccc2Oc2ccccc21
inactive: [2] 100 % of control | [16] 100 % of control | [3] 98 % of control

O=C(O)C(O)(c1ccccc1)C1CCCC1 (stereo not given)
inactive: [5] 109 % of control | dose: 400.0 mg/kg/injection, schedule: Q01DX009 (ip), vehicle: saline with Tween-80 107 % of control

O=C(NC(Cc1ccc(I)cc1)C(=O)O)c1ccc(I)cc1 (stereo not given)
inactive: [1] 96 % of control | [17] 104 % of control | dose: 200.0 mg/kg/injection, schedule: Q01DX005 (ip), vehicle: Klucel (hydroxypropylcellulose) (HPC) 104 % of control

CCOc1cc2c(cc1C(C)c1ccccc1OC)OCO2 (stereo not given)
inactive: [2] 100 % of control | [16] 98 % of control | [3] 96 % of control

C1COCCSCCOCCOCCSCCO1
inactive: dose: 100.0 mg/kg/injection, schedule: Q04DX003 (ip), vehicle: Klucel (hydroxypropylcellulose) (HPC) 95 % of control | dose: 200.0 mg/kg/injection, schedule: Q04DX003 (ip), vehicle: Klucel (hydroxypropylcellulose) (HPC) 100 % of control | dose: 400.0 mg/kg/injection, schedule: Q04DX003 (ip), vehicle: Klucel (hydroxypropylcellulose) (HPC) 101 % of control

Cc1ccccc1C(=O)Nc1ccccc1-c1ccccc1N
inactive: dose: 25.0 mg/kg/injection, schedule: Q04DX003 (ip), vehicle: saline 95 % of control | dose: 50.0 mg/kg/injection, schedule: Q04DX003 (ip), vehicle: saline 99 % of control | [12] 90 % of control and 91 % of control
